Read-outs that look alike come from different tables or passages of the source.
Legend:
[1] = target: T1, IGF-1R (Homo sapiens, UniProt P08069); experiment: In vitro IGF-1R enzymatic assay (ADP-Glo kinase assay); assay type: biochemical; settings: activated IGF-1R, 30 nM; for % Inh @ 30 nM (N2) / % Inh @ 30 nM (N1): 0.03 µM
T1 construct: purchased Millipore 14-802
Procedure: (§1) IC50 values of the compounds of the invention against IGF-1R and IR were measured in vitro using an ADP-Glo kinase assay Kit (Promega). […] Kinase reactions in both assays were conducted at 30° C. for 20 min with increasing concentrations of compounds of the invention.
Additional compounds of the invention were screened against activated IGF-1R.

[2] = system: Akt phosphorylation induced by IGF-1R; experiment: Western blot analysis of Akt phosphorylation induced by IGF-1 in HT-29 cells; assay type: cell-based, Human; settings: for Levels of phosphorylated AKT in treated cells (pAKT/actin): HT-29 cells, IGF-1; for p-AKT relative to levels with 0.1 nM compound: Table B2 lower part; for Normalized phosphorylated AKT (relative to actin) levels relative to 0.1 nM compound treatment: Table B2 upper part
Method in brief: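 Phospho-Akt assessed by western blot in serum-depleted (24 h) human colon carcinoma HT-29 cells. Compounds applied for 2 h at 0.1–100 (0.1, 1, 10, 100); vehicle DMSO and 10 ng/mL IGF-1 served as controls. Protein in cleared lysates measured by BCA assay.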

[3] = target: T2, IR (Homo sapiens, UniProt P06213); experiment: In vitro IR enzymatic assay (ADP-Glo kinase assay); assay type: biochemical; settings: activated IR, 30 nM
T2 construct: purchased Millipore 14-803
Procedure: as §1
Additional compounds of the invention were screened against activated IR.

[4] = N1, read-out: % Inh @ 30 nM (N1)
[5] = N2, read-out: % Inh @ 30 nM (N2)
[6] = average, read-out: % Inh @ 30 nM Avg

T1 sequence (P08069 31-1367): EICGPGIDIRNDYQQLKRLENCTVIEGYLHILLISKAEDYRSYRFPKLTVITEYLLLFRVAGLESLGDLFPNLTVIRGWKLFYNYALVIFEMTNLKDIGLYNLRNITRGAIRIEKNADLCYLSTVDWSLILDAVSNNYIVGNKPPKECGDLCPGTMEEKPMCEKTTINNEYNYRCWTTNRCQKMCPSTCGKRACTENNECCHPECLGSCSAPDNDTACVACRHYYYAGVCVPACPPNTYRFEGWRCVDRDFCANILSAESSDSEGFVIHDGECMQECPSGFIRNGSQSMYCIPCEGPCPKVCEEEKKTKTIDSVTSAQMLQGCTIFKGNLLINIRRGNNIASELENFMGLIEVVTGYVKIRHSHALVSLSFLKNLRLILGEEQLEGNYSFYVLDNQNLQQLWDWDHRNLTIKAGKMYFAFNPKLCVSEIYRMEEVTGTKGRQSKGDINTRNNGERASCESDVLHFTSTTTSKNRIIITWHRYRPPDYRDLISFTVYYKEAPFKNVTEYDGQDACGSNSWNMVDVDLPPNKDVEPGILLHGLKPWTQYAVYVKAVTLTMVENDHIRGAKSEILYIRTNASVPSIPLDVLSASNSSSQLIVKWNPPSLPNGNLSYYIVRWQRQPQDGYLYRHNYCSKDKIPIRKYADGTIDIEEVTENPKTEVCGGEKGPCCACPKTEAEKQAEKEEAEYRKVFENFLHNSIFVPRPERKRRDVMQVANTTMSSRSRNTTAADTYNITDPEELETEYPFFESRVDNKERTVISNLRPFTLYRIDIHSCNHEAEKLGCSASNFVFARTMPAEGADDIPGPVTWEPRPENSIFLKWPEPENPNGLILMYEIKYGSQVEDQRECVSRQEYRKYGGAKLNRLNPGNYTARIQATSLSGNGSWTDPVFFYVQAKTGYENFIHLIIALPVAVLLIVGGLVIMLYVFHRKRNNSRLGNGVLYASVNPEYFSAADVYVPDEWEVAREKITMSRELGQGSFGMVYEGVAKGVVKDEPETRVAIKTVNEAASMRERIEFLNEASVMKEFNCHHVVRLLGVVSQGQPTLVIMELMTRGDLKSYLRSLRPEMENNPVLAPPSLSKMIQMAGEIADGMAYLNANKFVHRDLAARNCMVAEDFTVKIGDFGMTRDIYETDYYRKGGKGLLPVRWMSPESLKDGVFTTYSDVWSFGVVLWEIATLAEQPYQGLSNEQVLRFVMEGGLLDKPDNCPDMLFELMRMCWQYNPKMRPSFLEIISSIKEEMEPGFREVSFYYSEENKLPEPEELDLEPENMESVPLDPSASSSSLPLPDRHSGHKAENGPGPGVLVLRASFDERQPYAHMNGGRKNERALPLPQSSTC
T2 sequence (P06213 28-1382): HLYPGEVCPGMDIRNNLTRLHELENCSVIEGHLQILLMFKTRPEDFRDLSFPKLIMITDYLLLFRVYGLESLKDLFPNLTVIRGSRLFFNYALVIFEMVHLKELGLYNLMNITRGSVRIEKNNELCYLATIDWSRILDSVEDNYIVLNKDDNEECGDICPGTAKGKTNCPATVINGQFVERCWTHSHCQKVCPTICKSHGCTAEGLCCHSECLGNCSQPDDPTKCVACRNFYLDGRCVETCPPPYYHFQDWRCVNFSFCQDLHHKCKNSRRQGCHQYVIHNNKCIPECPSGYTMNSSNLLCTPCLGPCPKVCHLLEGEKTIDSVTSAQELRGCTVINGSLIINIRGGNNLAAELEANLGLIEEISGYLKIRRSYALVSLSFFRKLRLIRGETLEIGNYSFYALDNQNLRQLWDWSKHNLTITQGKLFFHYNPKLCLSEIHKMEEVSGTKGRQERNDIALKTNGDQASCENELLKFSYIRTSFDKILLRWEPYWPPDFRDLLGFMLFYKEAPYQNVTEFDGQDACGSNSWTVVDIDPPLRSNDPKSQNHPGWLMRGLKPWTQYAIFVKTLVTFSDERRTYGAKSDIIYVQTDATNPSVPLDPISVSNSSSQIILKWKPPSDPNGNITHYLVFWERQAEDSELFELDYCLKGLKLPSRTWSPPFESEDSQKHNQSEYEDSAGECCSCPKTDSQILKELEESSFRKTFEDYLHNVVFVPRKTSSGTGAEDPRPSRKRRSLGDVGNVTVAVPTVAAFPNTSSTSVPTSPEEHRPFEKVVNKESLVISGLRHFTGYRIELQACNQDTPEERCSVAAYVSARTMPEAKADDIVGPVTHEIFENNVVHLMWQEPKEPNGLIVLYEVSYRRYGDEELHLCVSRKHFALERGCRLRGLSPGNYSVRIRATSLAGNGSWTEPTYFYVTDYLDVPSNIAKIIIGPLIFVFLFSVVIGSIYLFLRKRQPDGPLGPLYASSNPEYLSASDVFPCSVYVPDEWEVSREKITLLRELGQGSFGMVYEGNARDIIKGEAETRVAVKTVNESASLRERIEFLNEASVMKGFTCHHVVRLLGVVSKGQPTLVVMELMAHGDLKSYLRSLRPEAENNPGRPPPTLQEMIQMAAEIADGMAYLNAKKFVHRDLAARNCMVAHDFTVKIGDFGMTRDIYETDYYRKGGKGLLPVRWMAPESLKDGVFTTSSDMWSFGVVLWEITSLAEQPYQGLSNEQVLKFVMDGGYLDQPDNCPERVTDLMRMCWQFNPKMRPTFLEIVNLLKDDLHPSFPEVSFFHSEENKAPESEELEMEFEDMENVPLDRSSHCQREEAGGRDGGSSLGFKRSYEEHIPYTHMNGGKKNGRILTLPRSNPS

SMILES | % Inh @ 30 nM (N2) ([1]; N2) [%] | Levels of phosphorylated AKT in treated cells (pAKT/actin) ([2]; 0.1 nM compound) | p-AKT relative to levels with 0.1 nM compound ([2]; 0.1 nM) | Normalized phosphorylated AKT (relative to actin) levels relative to 0.1 nM compound treatment ([2]; 0.1 nM) | Levels of phosphorylated AKT in treated cells (pAKT/actin) ([2]; 1 nM compound) | p-AKT relative to levels with 0.1 nM compound ([2]; 1 nM) | Normalized phosphorylated AKT (relative to actin) levels relative to 0.1 nM compound treatment ([2]; 1 nM) | Levels of phosphorylated AKT in treated cells (pAKT/actin) ([2]; 10 nM compound) | p-AKT relative to levels with 0.1 nM compound ([2]; 10 nM) | Normalized phosphorylated AKT (relative to actin) levels relative to 0.1 nM compound treatment ([2]; 10 nM) | Levels of phosphorylated AKT in treated cells (pAKT/actin) ([2]; 100 nM compound) | p-AKT relative to levels with 0.1 nM compound ([2]; 100 nM) | Normalized phosphorylated AKT (relative to actin) levels relative to 0.1 nM compound treatment ([2]; 100 nM) | % Inh @ 30 nM (N1) ([3]; N1, 0.03 µM) [%] | % Inh @ 30 nM (N2) ([3]; N2, 0.03 µM) [%] | % Inh @ 30 nM Avg ([3]; average) [%] | % Inh @ 30 nM (N1) ([1]; N1) [%] | % Inh @ 30 nM Avg ([1]; average) [%] | also measured
CC(C)c1cc(Nc2nc(N3CCCCC3C(=O)Nc3ccc(F)nc3)nc3c2CCC3)n[nH]1 (single isomer, unassigned) [Compound 16a, N-(6-fluoropyridin-3-yl)-1-(4-(5-isopropyl-1H-pyrazol-3-ylamino)-6,7-dihydro-5H-cyclopenta[d]pyrimidin-2-yl)piperidine-2-carboxamide] | 15 | 0.82 | 1.0 | 1.0 | 0.62 | 0.8 | 0.8 | 0.61 | 0.7 | 0.7 | 0.30 | 0.4 | 0.4 | 1 | −7 | −3 |  |  | 
O=C(Nc1cnccn1)C1CCCN1c1nc2c(c(Nc3cc(C4CC4)[nH]n3)n1)CCC2 (single isomer, unassigned) [Compound 6a, 1-(4-(3-cyclopropyl-1H-pyrazol-5-ylamino)-6,7-dihydro-5H-cyclopenta[d]pyrimidin-2-yl)-N-(pyrazin-2-yl)pyrrolidine-2-carboxamide] |  | 1.85 | 1.0 | 1.0 | 1.74 | 0.9 | 0.9 | 1.40 | 0.8 | 0.8 | 1.17 | 0.6 | 0.6 |  |  |  |  |  | inhibition at 0.03 µM [1, 4]: 22%; inhibition at 0.03 µM [1, 5]: 33%; inhibition at 0.03 µM [1, 6]: 28%; inhibition at 0.03 µM [3, 4]: -13%; inhibition at 0.03 µM [3, 5]: 9%; inhibition at 0.03 µM [3, 6]: -2%
O=C(Nc1ccc(F)nc1)C1CCCCN1c1nc2c(c(Nc3cc(C4CCCC4)[nH]n3)n1)CCC2 (single isomer, unassigned) [Compound 17b, 1-(4-(5-cyclopentyl-1H-pyrazol-3-ylamino)-6,7-dihydro-5H-cyclopenta[d]pyrimidin-2-yl)-N-(6-fluoropyridin-3-yl)piperidine-2-carboxamide] | 23 | 0.83 | 1.0 | 1.0 | 0.99 | 1.2 | 1.2 | 0.95 | 1.1 | 1.1 | 1.08 | 1.3 | 1.3 |  | 10 | 6 | 21 | 22 | % Inh @ 30 nM (N1) ([3]; N1): 2%
CC(C)c1cc(Nc2nc(N3CCCCC3C(=O)Nc3ccc(F)nc3)nc3c2CCC3)n[nH]1 (single isomer, unassigned) [Compound 16b, N-(6-fluoropyridin-3-yl)-1-(4-(5-isopropyl-1H-pyrazol-3-ylamino)-6,7-dihydro-5H-cyclopenta[d]pyrimidin-2-yl)piperidine-2-carboxamide] | 40 | 0.53 | 1.0 | 1.0 | 0.51 | 1.0 | 1.0 | 0.15 | 0.3 | 0.3 | 0.01 | 0.0 | 0.0 | 26 | 23 | 25 | 40 | 40 | 
O=C(Nc1ccc(F)nc1)C1CCCN1c1nc2c(c(Nc3cc(C4CCCC4)[nH]n3)n1)CCCC2 (single isomer, unassigned) [Compound 15b, 1-(4-(5-cyclopentyl-1H-pyrazol-3-ylamino)-5,6,7,8-tetrahydroquinazolin-2-yl)-N-(6-fluoropyridin-3-yl)pyrrolidine-2-carboxamide] | 28 | 0.52 | 1.0 | 1.0 | 0.58 | 1.1 | 1.1 | 0.43 | 0.8 | 0.8 | 0.13 | 0.3 | 0.3 | 28 | 31 | 30 | 32 | 30 | 
CC(C)c1cc(Nc2nc(N3CCCC3C(=O)Nc3ccc(F)nc3)nc3c2CCC3)on1 (racemic) [Compound 12b, N-(6-fluoropyridin-3-yl)-1-(4-(3-isopropylisoxazol-5-ylamino)-6,7-dihydro-5H-cyclopenta[d]pyrimidin-2-yl)pyrrolidine-2-carboxamide] |  | 3.66 | 1.0 | 1.0 | 3.56 | 1.0 | 1.0 | 4.32 | 1.2 | 1.2 | 2.29 | 0.6 | 0.6 |  |  |  |  |  | inhibition at 0.03 µM [1, 4]: 13%; inhibition at 0.03 µM [1, 5]: 34%; inhibition at 0.03 µM [1, 6]: 24%; inhibition at 0.03 µM [3, 4]: -14%; inhibition at 0.03 µM [3, 5]: -10%; inhibition at 0.03 µM [3, 6]: -12%
O=C(Nc1ccc(F)nc1)C1CCCN1c1nc2c(c(Nc3cc(C4CCCC4)[nH]n3)n1)CCC2 (single isomer, unassigned) [Compound 4b, 1-(4-(3-cyclopentyl-1H-pyrazol-5-ylamino)-6,7-dihydro-5H-cyclopenta[d]pyrimidin-2-yl)-N-(6-fluoropyridin-3-yl)pyrrolidine-2-carboxamide] | 35 | 1.81 | 1.0 | 1.0 | 1.92 | 1.1 | 1.1 | 1.64 | 0.9 | 0.9 | 0.20 | 0.1 | 0.1 | 41 | 33 | 37 | 22 | 28 | 
